Article PMC10508264, “Exploring the antioxidant, antimicrobial, cytotoxic and biothermodynamic properties of novel morpholine derivative bioactive Mn(II), Co(II) and Ni(II) complexes – combined experimental and theoretical measurements towards DNA/BSA/SARS-CoV-2 3CL^Pro” (RSC Medicinal Chemistry, 2023)

Experiments:
CT-DNA [1] = test: DNA thermal denaturation / biothermodynamic properties; type: binding; conditions: for Tm of DNA–substance adduct: 1:1 ratio (50 μM), free CT-DNA 68 °C; for Binding constant Kr @ 298 K: 25 °C (298 K); for ΔTm: adduct vs CT-DNA alone
NHDF = test: MTT cell viability assay, NHDF; type: cell-based, human; conditions: NHDF normal cells, 72 h of exposure
Description: Cellular viability or metabolic properties can be measured using the MTT assay, which is a powerful and consistent method for cytotoxic properties. […] As per the colorimetric approach, the IC50 values of all compounds were evaluated via the percentage of cell viability or inhibition of growth.[128] […] However, complexes (2) and (3) were exposed to similar cytotoxic potential as the others,[129] which induces apoptosis due to their ability to produce ROS more efficiently than the free ligand. […] The cytotoxic effectiveness is dependent upon the DNA binding modalities, the structure–activity relationship, the drug concentrations, and the incubation period exposure.[130] […] Coordination between the ligands and metal ions results in charge equilibration, which diminishes the polarity of the metal ions and also causes the ability of the test complexes to pass via the cell membrane lipid layer in accordance with Tweedy's chelation theory. Thus, it inhibits the synthesis of cell-wall/protein/nucleic acid. Additionally, the results of DNA binding tests using these complexes, including gel electrophoresis, UV-vis spectral titration, hydrodynamics, emission, and CV findings, were in good agreement with the findings of cytotoxicity.[131] Expressions eqn (44) and (45) were applied to measure the percentage of growth inhibition and cell viability (Table 10). In this case, complexes (2) and (3) have been proven to have greater biological efficiency than the others. Cytotoxicity depends on not only the hydrophilicity or lipophilicity and permeability, which only assist the crossing of the cell membrane but are not responsible for cell death, but also on several other factors, including the Lewis acid character, overall stability, solubility, conductivity, compatibility, length of the metal–ligand bond, overall charge, electron density, reduction potential, dipole moment, intermolecular hydrogen bonds, proton transfer equilibrium, and coordination environment. These significant elements might also contribute to the increased biological activity. Moreover, cobalt is also generally not considered to be a very toxic element, and its coordination complexes have fascinating redox and magnetic characteristics that fit them for a remarkable range of biological and medical uses. […] Moreover, it is possible to intelligently adjust these factors to successfully target a desired pathway or biomolecule. Designing such well-controlled and selective cobalt-based therapeutics may benefit from a mechanistic understanding of the varied bioactivities of cobalt complexes. Thus, knowing the mechanism of action can direct the advancement of prospective cobalt treatments to clinical trial.[133]
2.5. Assessment of in-vitro antimicrobial properties
bacteria and 7 days for fungal strains.

CT-DNA [2] = test: DNA binding by cyclic voltammetry; conditions: for Kb, method I, Oxi: oxidation; for Kb, method I, red: reduction
Description: The changes in peak current as well as peak potential were monitored while concentrations of CT-DNA were increased (0–10 μM) in each sample solution.[13,36]
The CV approach is one of the most important methods for evaluating the binding mechanism of a DNA–complex adduct. The CV properties of all test samples in the presence and absence of DNA were executed at a scan rate (v) of 0.1 V s^−1 with a potential range of +2 to −2 in a Tris–HCl (5 mM)/NaCl (50 mM) (pH = 7.2) solution. The M^1+/M^2+ redox couple is caused by complexes that reveal a single anodic and cathodic peak. […] (Fig. S31 ^† and Table 6).
ΔEP is peak-to-peak separation = (EPa − EPc); E° (or E1/2) denotes the formal electrode potential = 1/2(EPa + EPc); [drawing 41] [drawing 42] and [drawing 43] represent the formal electrode potential of the M^1+/M^2+ couple in the bound and free forms, respectively. [drawing 44] = +19 mV (HL), +18 mV (1), +16 mV (2), +16 mV (3). Ipa is anodic peak current, Ipc is cathodic peak current. K^1+ is the binding constant of the reduction process, K^2+ is the binding constant of the oxidation process. S represents the binding site size of base pairs (bp) with a molecule of complex, scan rate is 100 mV s^−1, binding constant (Kb) values observed from the linear plots of log(1/[DNA]) versus log(I/I0 − I) for oxidation and reduction, (I0 − IDNA)/IDNA = Cp/Cfversus [DNA] and I^2p versus(I^2po − I^2p)/[DNA] by methods I, II and III, respectively.
While the substances often bind to DNA through intercalation, the peak potential shifts in a positive direction. When the compounds bind to DNA through minor or major grooves or electrostatic attractions, the peak potential shifts occur in a negative direction. It was observed that the consistent movement of peak potential shifts in the positive direction during increments of DNA with test substances. The binding mode in compound–DNA adducts has been described as primarily intercalation (Fig. S31 ^†), and it is also attributed to the presence of 2,2′-bipyridine and morpholine fused aromatic planar systems in mixed ligand complexes, which can create inclusion through intercalation due to hydrophobic and π–π stacking interactions in the DNA base pairs. It is also supported by the evaluated outcomes from UV-vis spectral, emission titration, viscometric, and biothermodynamic properties. Furthermore, the observed values of Kb, S, and the ratio of binding constants (K^1+/K^2+) for M^1+/M^2+ couple systems further confirmed the binding affinity via intercalation. Also, the subsequent eqn (24)–(35) are applied to determine the above parameters.[88,89]Eqn (24) is acquired from modification of the Stern–Volmer eqn (14) (Table 6). The Kb values for all samples were estimated from the linear regression plot of log(1/[DNA]) versus log(I/I0 − I) by method I (Fig. S32 ^† and Table 6). Eqn (26) was obtained from revision of eqn (25). Also, binding site size (S, bp) and Kb are estimated from eqn (30) from the linear regression plot of (Cp/Cf) versus [DNA] by method-II[90–92] (Fig. S33 ^† and Table 6). In addition, base-pair sites with a molecule of the compound are referred to as “binding site size” (S), and the evaluated S values were found in the range from 0.1718 to 0.4599 bp. […] In the Nernst eqn (31) and (32) for the galvanic cell, [drawing 58] , the formal electrode potentials of the M^1+/M^2+ couple in their bound and free forms are E1/2 or [drawing 59] and [drawing 60] , respectively. As a result of the variable binding state [M^1+/M^2+] and the delayed mass transfer of test compounds that interacted with DNA fragments, the addition of DNA to the compound solution enabled a change in the redox potential to a higher positive direction and a drop in both anodic and cathodic peak currents. In particular, the equilibrium of M^1+/M^2+ is influenced by electrostatic or hydrophobic interactions.

[3] = test system: Salmonella enterica serovar typhi; test: Agar disc diffusion, strain C; type: cell-based; conditions: for Diameter of clear zone inhibition: control 6 mm

SMILES	Tm of DNA–substance adduct (CT-DNA [1])	Binding constant (CT-DNA [1]; 10 °C (283 K))	Binding constant Kr @ 298 K (CT-DNA [1])	Binding constant (CT-DNA [1]; 40 °C (313 K))	ΔTm (CT-DNA [1])	IC50 (NHDF)	Kb, method II (CT-DNA [2])	Kb, method III (CT-DNA [2])	Kb, method I, Oxi (CT-DNA [2])	Kb, method I, red (CT-DNA [2])	Inhibition% [3]	Diameter of clear zone inhibition [3]	IC50 (NHDF; Homo sapiens)
[Mn+2].[O-]c1ccccc1N=Cc1ccc(N2CCOCC2)cc1.[O-]c1ccccc1N=Cc1ccc(N2CCOCC2)cc1.c1ccc(-c2ccccn2)nc1 [(1)]	76 °C	72350 M⁻¹	18195 M⁻¹	7732.1 M⁻¹	8 °C	76.6 ± 3.8 µM	14873 M⁻¹	10713 M⁻¹	10020 M⁻¹	7890 M⁻¹	40%	10 mm	–
[Co+2].[O-]c1ccccc1N=Cc1ccc(N2CCOCC2)cc1.[O-]c1ccccc1N=Cc1ccc(N2CCOCC2)cc1.c1ccc(-c2ccccn2)nc1 [(2)]	78 °C	98820 M⁻¹	18806 M⁻¹	8043.3 M⁻¹	10 °C	74 ± 3.7 µM	41119 M⁻¹	15999 M⁻¹	14210 M⁻¹	11330 M⁻¹	40%	10 mm	–
[Ni+2].[O-]c1ccccc1N=Cc1ccc(N2CCOCC2)cc1.[O-]c1ccccc1N=Cc1ccc(N2CCOCC2)cc1.c1ccc(-c2ccccn2)nc1 [(3)]	77 °C	91140 M⁻¹	18207 M⁻¹	7879.7 M⁻¹	9 °C	73.8 ± 3.7 µM	6072 M⁻¹	16031 M⁻¹	11440 M⁻¹	9156 M⁻¹	45%	11 mm	–
Oc1ccccc1N=Cc1ccc(N2CCOCC2)cc1 [(HL), 2-(4-morpholinobenzylideneamino)phenol]	74 °C	52575 M⁻¹	15169 M⁻¹	6067.4 M⁻¹	6 °C	–	2443 M⁻¹	4837 M⁻¹	5280 M⁻¹	3809 M⁻¹	45%	11 mm	209 ± 10.4 µM
